# Test results from patent publication US20260191829A1, “Compositions and Methods of Treating Neurological Conditions” (DRI Biosciences Corporation, priority 2022, published 2026).
# “Also recorded” adds a separate entry of the source.
# Experiments:
# [1] = test system: Fmr1 KO mice; assay: Novel object recognition test (learning and memory) in Fmr1 KO mice; type: in vivo, mouse; settings: Fmr1 KO mice vs vehicle and FVB mice, daily oral treatment from P21, ACT01 25 mg/kg, FIG. 4D
# Excerpt: (§1) The study compared learning and memory behaviors of the different drug treated and untreated (vehicle) Fmr1 KO mice with FVB mice (a background strain of the transgenic Fmr1 KO mice; “FVB” refers to the susceptibility of FVB mice to Friend leukemia virus B). Male mice (FVB.129P2-Pde6b<+> Tyr<c-ch>Fmr1<tm1Cgr>/J (Stock No: 004624 |FMR1 KO)) were used as the FXS/autism model and age-matched male mice (FVB.129P2-Pde6b<+> Tyr<c-ch>/AntJ) were used as the controls (Bernardet, M. and W. E. Crusio, Fmr1 KO mice as a possible model of autistic features. Scientific WorldJournal, 2006. 6: p. 1164-76. Hays, S. A., K. M. Huber, and J. R. Gibson, Altered neocortical rhythmic activity states in Fmr1 KO mice are due to enhanced mGluR5 signaling and involve changes in excitatory circuitry. J Neurosci, 2011. 31(40): p. 14223-34. Willemsen, R. and R. F. Kooy, Mouse models of fragile X-related disorders. Dis Model Mech, 2023. 16(2).).
# Unexpected drug-combination effects on rodent learning and memory: Novel object recognition test was used to assess treatment effects of different catecholaminergic mediations (including drug combinations) on cognitive behavior, i.e., learning and memory. […]
# [2] = test system: Fmr1 KO mice; assay: Metabolic activities (glucose and lipid) of Fmr1 KO mice; type: in vivo, mouse; settings: Fmr1 KO mice vs FVB mice; FIG. 4C
# Excerpt: The altered metabolic activities indicated sympathetic dysregulation (i.e., catecholaminergic disequilibrium). Dopaminergic activity modulates sympathetic activation.
# as §1
# Such alterations indicated an excessive sympathetic activation.
substance,measurement,setting,value
3-(phenylpropyl)-sydnonimine-N-phenylcarbamoyl [ACT01],learning and memory ability (NOR index = novel object recognition index),[1],significantly (p<0.05) improved; also recorded: positively enhance
same,glucose and lipid metabolisms (metabolic activities),[2],normalized the glucose and lipid metabolisms; also recorded: normalized the metabolic activities
